Here are results for seven compounds from patent US20220119367A1, “HETEROCYCLIC COMPOUNDS AS ADENOSINE ANTAGONISTS” (Nuvation Bio Inc., priority 2019, published 2022).

For assay [1], the target named is T1, HEK-293 cells expressing human recombinant A1 receptor (Homo sapiens, UniProt P30542).
T1 construct: expressed in transfected cells; host or cells: HEK-293
T1 sequence (P30542 1-326): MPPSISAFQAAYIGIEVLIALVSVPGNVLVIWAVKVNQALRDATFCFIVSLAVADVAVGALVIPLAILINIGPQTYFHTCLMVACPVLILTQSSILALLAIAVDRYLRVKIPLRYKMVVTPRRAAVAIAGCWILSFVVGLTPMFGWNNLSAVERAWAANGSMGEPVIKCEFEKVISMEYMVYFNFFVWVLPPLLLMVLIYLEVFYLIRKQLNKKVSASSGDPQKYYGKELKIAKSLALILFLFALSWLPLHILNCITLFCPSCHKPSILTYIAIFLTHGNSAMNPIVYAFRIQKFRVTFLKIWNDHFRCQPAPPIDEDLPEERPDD
The assay can be described thus: cAMP assay (Assay 2), A1 receptor. Format: cell-based. As to conditions: HEK-293 cells expressing A1 receptor. How it is done:
(§1) The functional activity of compounds was tested using Assay 2 below, to detect the presence of cAMP. Assay 1 is an alternative assay for this purpose. Activation of G-protein coupled receptors (such as A2A) results in activation of adenylyl cyclase which converts ATP into cAMP which is used as a downstream signaling molecule. Molecules which act as GPCR (or specifically A2A receptor) antagonists cause a decrease in intracellular cAMP concentration.
(§2) Assay 2 (Table B2): This assay used HEK-293 cells expressing human recombinant adenosine A2A receptor (or, alternatively, A1 receptor) that were grown prior to the test in media without antibiotic. 100 nL of test articles at 100× of final concentration were transferred to assay plate by Echo. Cells were washed twice with 5 mL of PBS and 10 μL of cells were mixed with 5 mL PBS. After aspirating the PBS and adding 1.5 mL versine, cells were incubated at 37° C. for 2-5 min. After centrifugation, 4 mL of medium was added and adjusted cell density to 5,000 cells/well with Stimulation Buffer. 10 μL of cells were aliquoted to the assay plate, centrifuged at 1000 rpm for 1 minute, and incubated for 60 minutes at room temperature. 5 μL 4× Eu-cAMP tracer solution and 5 μL 4× Ulight™-anti-cAMP solution were added to assay plate, followed by centrifugation and 60-minute incubation at room temperature. Plates were read on EnVision.
On the technique in general: Changes in cAMP serve as a functional read-out for many G protein-coupled receptors.

Assay [2] has as its target T2, HEK-293 cells expressing human recombinant adenosine A2A receptor (Homo sapiens, UniProt P29274).
T2 construct: expressed in transfected cells; host or cells: HEK-293
The assay is described as follows: cAMP assay (Assay 2), A2A receptor. Format: cell-based. As to conditions: HEK-293 cells expressing human A2A receptor. As to the method:
as §1, §2

The target of assay [3] is T3, adenosine A2a (human) membrane (Homo sapiens, UniProt P29274).
T3 construct: purchased PerkinElmer RBHA2AM400UA
The assay can be described thus: A2A adenosine receptor radioligand binding assay ([3H] CGS-21680). The conditions noted are these: radioligand [3H] CGS-21680 6 nM. How it is done: A second A2A adenosine receptor radioligand binding assay protocol was used. The protocol used adenosine A2a (human) membrane (PerkinElmer RBHA2AM400UA) at a concentration of 5 μg/well/100 μl and the radioligand [3H] CGS-21680 (Cat No. PerkinElmer-NET1021250UC) at a final concentration of 6 nM. Testing compounds were diluted with DMSO to make 8-point 4-fold serial dilution, starting at 0.2 mM. CGS-15943 was the reference compound. 1 μl of compounds/high control/low control was transferred to the assay plate according to a plate map, followed by 100 μl of membrane stocks and 100 μl of radioligand, in assay buffer (50 mM Tris-HCl, 10 mM MgCl2, 1 mM EDTA, pH 7.4). The plate was sealed and incubated at RT for 2 hours. Unifilter-96 GF/C filter plates (Perkin Elmer Cat #6005174) were soaked with 50 μl of 0.3% PEI per well for at least 0.5 hour at room temperature. When the binding assays were completed, the reaction mixtures were filtered through GF/C plates using Perkin Elmer Filtermate Harvester, and each plate washed 4 times with cold wash buffer (50 mM Tris-HCl, 154 mM NaCl, pH 7.4). The filter plates were dried for 1 hour at 50 degrees. After drying, the bottom of the filter plate wells was sealed, 50 μl of Perkin Elmer Microscint 20 cocktail was added, and the top of the filter plate was sealed. ^3H trapped on the filter was counted using Perkin Elmer MicroBeta2 Reader. The data were analyzed with GraphPad Prism 5 to obtain binding IC50 values. The “Inhibition [% Control]” was calculated using the equation: % Inh=(1−Background subtracted Assay value/Background subtracted HC value)*100, where HC is high control.

Assay [4] deals with T4, adenosine A1 (human) membrane (Homo sapiens, UniProt P30542).
T4 construct: purchased PerkinElmer ES-010-M400UA
T4 sequence (P30542 1-326): T1 sequence (P30542 1-326)
The assay can be described thus: A1 adenosine receptor radioligand binding assay ([3H] DPCPX). The conditions noted are these: compound at 200 nM, radioligand [3H] DPCPX 1 nM. As to the method:
A second A1 adenosine receptor radioligand binding assay protocol was used. The protocol used adenosine A1 (human) membrane (PerkinElmer ES-010-M400UA) at a concentration of 2.5 μg/well/100 μl and the radioligand [3H] DPCPX (Cat No. PerkinElmer-NET974250UC) at a final concentration of 1 nM. Testing compounds were tested at a final concentration of 200 nM. CGS-15943, the reference compound, was tested in an 8-point 4-fold serial dilution, starting at a top concentration of 1 μM. 1 μl of compounds/high control/low control was transferred to the assay plate according to a plate map, followed by 100 μl of membrane stocks and 100 μl of radioligand, in assay buffer (25 mM HEPES, 5 mM MgCl2, 1 mM CaCl2, 100 mM NaCl, pH 7.4). The plate was sealed and incubated at RT for 1 hour. Unifilter-96 GF/C filter plates (Perkin Elmer Cat #6005174) were soaked with 50 μl of 0.3% PEI per well for at least 0.5 hour at room temperature. When the binding assays were completed, the reaction mixtures were filtered through GF/C plates using Perkin Elmer Filtermate Harvester, and each plate washed 4 times with cold wash buffer (25 mM HEPES, 5 mM MgCl2, 1 mM CaCl2, 100 mM NaCl, pH 7.4). The filter plates were dried for 1 hour at 50 degrees. After drying, the bottom of the filter plate wells was sealed, 50 μl of Perkin Elmer Microscint 20 cocktail was added, and the top of the filter plate was sealed. ^3H trapped on the filter was counted using Perkin Elmer MicroBeta2 Reader. The data were analyzed with GraphPad Prism 5 to obtain binding IC50 values for the reference compound. The “Inhibition [% Control]” was calculated using the equation: % Inh =(1−Background subtracted Assay value/Background subtracted HC value)*100, where HC is high control.

T2 sequence (P29274 whole entry): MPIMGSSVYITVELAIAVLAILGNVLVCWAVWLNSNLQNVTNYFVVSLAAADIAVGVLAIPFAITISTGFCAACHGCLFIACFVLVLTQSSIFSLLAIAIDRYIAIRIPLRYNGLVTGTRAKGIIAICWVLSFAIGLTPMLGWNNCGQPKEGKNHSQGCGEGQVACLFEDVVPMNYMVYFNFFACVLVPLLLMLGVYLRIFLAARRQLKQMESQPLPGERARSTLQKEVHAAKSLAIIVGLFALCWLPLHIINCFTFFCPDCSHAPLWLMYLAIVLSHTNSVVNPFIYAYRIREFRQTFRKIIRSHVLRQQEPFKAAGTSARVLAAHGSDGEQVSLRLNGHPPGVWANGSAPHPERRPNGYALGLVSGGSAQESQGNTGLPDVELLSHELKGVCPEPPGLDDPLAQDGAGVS
T3 sequence (P29274 whole entry): as above

In the case of `CC(C)(O)c1cccc(COc2nc(-c3ccc4ncccc4c3)c(-c3ccccc3)nc2N)n1` [compound 2, 2-(6-(((3-amino-5-phenyl-6-(quinolin-6-yl)pyrazin-2-yl)oxy)methyl)pyridin-2-yl)propan-2-ol], the IC50 in assay [1] came to 32.3 nM; in assay [2] it was 15.1 nM.
`CC(NC(=O)c1nc(-c2ccc3ncccc3c2)c(-c2ccccc2)nc1N)c1ccccc1` (stereo not drawn) [compound 121, 3-amino-5-phenyl-N-(1-phenylethyl)-6-(quinolin-6-yl)pyrazine-2-carboxamide]: the 50% inhibitory concentration (IC50) in assay [3] is 2.1 nM. In assay [4], testing at 0.2 µM gave an inhibition of 68%.
For `C[C@@H](c1ccccn1)N(C)C(=O)c1nc(-c2ccc3ncccc3c2)c(-c2ccccc2)nc1N` [compound 120, (S)-3-amino-N-methyl-5-phenyl-N-(1-(pyridin-2-yl)ethyl)-6-(quinolin-6-yl)pyrazine-2-carboxamide] the same measures were 65 nM and 90%.
In the case of `CC(C)(O)c1cccc(Cn2cc(-c3nc(-c4ccc5ncccc5c4)c(-c4ccccc4)nc3N)nn2)n1` [compound 102, 2-(6-((4-(3-amino-5-phenyl-6-(quinolin-6-yl)pyrazin-2-yl)-1H-1,2,3-triazol-1-yl)methyl)pyridin-2-yl)propan-2-ol], the 50% inhibitory concentration (IC50) in assay [1] was determined as 8.7 nM; in assay [2], 19.6 nM. In assay [4], this compound displayed an inhibition at 0.2 µM of 97%.
In turn, `C[C@H](c1ccccn1)N(C)C(=O)c1nc(-c2ccc3ncccc3c2)c(-c2ccccc2)nc1N` [compound 119, (R)-3-amino-N-methyl-5-phenyl-N-(1-(pyridin-2-yl)ethyl)-6-(quinolin-6-yl)pyrazine-2-carboxamide] had an IC50 in assay [3] of 105 nM. Besides, the inhibition at 0.2 µM in assay [4] worked out at 49%.
As for `CC(C)(O)c1cccc(COc2nc(-c3cc(Cl)c4ncccc4c3)c(-c3ccc(F)cc3)nc2N)n1` [Compound No. 58, 2-(6-(((3-amino-6-(8-chloroquinolin-6-yl)-5-(4-fluorophenyl)pyrazin-2-yl)oxy)methyl)pyridin-2-yl)propan-2-ol], the 50% inhibitory concentration (IC50) in assay [1] is 92.7 nM; in assay [2], 18.4 nM. In addition, at 0.2 µM the inhibition in assay [4] was 85%.
On to `Cc1ccn(-c2nc(N)c(OCc3cccc(C(C)(C)O)n3)nc2-c2cc(Cl)c3ncccc3c2)n1` [compound 1, 2-(6-(((3-amino-6-(8-chloroquinolin-6-yl)-5-(3-methyl-1H-pyrazol-1-yl)pyrazin-2-yl)oxy)methyl)pyridin-2-yl)propan-2-ol], for which the IC50 in assay [2] came out at 164 nM.

In general, IC50 refers to the concentration needed to halve the response being measured. In general, inhibition refers to the relative decrease from the control value, in per cent. A higher inhibition goes with a response far below the control.
